For assay [1], the system named is HCC1806 breast cancer cells. Kind of assay: Inhibitory activity against tumor cells, CellTiter-Glo: HCC1806. The class given is cell-based. Conditions: Homo sapiens, 168 h, HCC1806, 7 days treatment. As for the experimental part: (§1) MCF7 (ATCC #HTB-22) and T47D (ATCC #HTB-133) breast cancer cells and PANC-1 (ATCC #CRL-1469) pancreatic cancer cells were purchased from ATCC. MDA-MB-231 (Cobioer #CBP60382), HCC1806 (Cobioer #CBP60373), and MDA-MB-468 (Cobioer #CBP60387) breast cancer cells, HCT-116 (Cobioer #CBP60028) colorectal cancer cells, and OCI-AML-3 (Cobioer #CBP60817) and MV-4-11 (Cobioer #CBP60522) leukemia cells were purchased from Nanjing Cobioer Biosciences Co., Ltd.
(§2) OCI-AML-3 was cultured in RPMI 1640 medium with 20% FBS; HCC1806 and T47D were cultured in RPMI 1640 medium with 10% FBS; MCF7, MDA-MB-231, MDA-MB-468, and PANC-1 were cultured in DMEM medium with 10% FBS; MV-4-11 was cultured in IMDM medium with 20% FBS; HCT-116 was cultured in MC′5A medium with 10% FBS.
(§3) Palbociclib-resistant cells were constructed on MCF7 parent cells, designated MCF7 Palbo-R, and the culture conditions were consistent with those of the parent cells. All tumor cells were cultured in a cell incubator at 37° C. with 5% CO2. The cells were seeded at corresponding cell densities (600 cells/well for MDA-MB-231; 500 cells/well for MDA-MB-468, PANC-1, and HCT-116; 200 cells/well for MCF7 and HCC1806; 800 cells/well for MCF7 Palbo-R; 3000 cells/well for OCI-AML-3 and MV-4-11) in 384-well plates and cultured overnight in the incubator. On the second day, the cells were treated with compounds. The maximum compound concentration was 10 μM and was 3-fold diluted to obtain 9 concentrations, each tested in duplicate, and the final concentration of DMSO was 0.1%. The cells continued to be cultured in the incubator, with MDA-MB-231, PANC-1, MDA-MB-468, OCI-AML-3, and MV-4-11 being treated with drugs for 5 days and HCC1806, MCF7, MCF7 Palbo-R, and HCT116 being treated with drugs for 7 days. Cell viability was tested using the Celltiter Glo assay kit (Promega), and the testing method was consistent with the operational method provided by the kit. Readings were taken using an Envision multimode microplate reader. Data were processed using GraphPad Prism 8, and IC50 was calculated. […]

Assay [2] concerns PANC-1 pancreatic cancer cells. Put plainly: Inhibitory activity against tumor cells, CellTiter-Glo: PANC-1. The format is cell-based. Conditions: Homo sapiens, 120 h, PANC-1, 5 days treatment. As for the experimental part: as §1, §2, §3
Assay [3] concerns OVCAR3 ovarian cancer cells. Put plainly: Inhibitory activity against ovarian cancer cells (OVCAR3), CellTiter-Glo viability. The format is cell-based. Conditions: Homo sapiens, OVCAR-3, 120 h, OVCAR3, 5 days treatment. The procedure: OVCAR3 ovarian cancer cells were cultured in a cell incubator at […] with 5% CO2 using RPMI 1640 medium with […]. On the first day, the cells were plated in a 96-well plate at a cell concentration of 2500 cells/well and cultured overnight in the incubator. On the second day, the cells were treated with compounds. The maximum compound concentration was 10 μM and was 3-fold diluted to obtain 9 concentrations, and the final concentration of DMSO was 0.1%. After the cells were cultured in the incubator for another 5 days, cell viability was tested using the Celltiter Glo assay kit (Promega), and the testing method was consistent with the operational method provided by the kit. Data were processed using GraphPad Prism 8, and IC50 was calculated.
(§4) [formula] • X: the logarithm of the compound concentration; Y: % inhibition.
Background: Cellular ATP, detected with luciferase, serves as a proxy for viable cell number.

A further assay addresses CDK6/CyclinD3 (Homo sapiens, UniProt Q00534). Kind of assay: ADP-Glo kinase assay, CDK6. The class given is biochemical. Conditions: 15.7 nM CDK6/CyclinD3, 200 μM ATP (Km), Histone H1, 60 min; read-out: inhibitory activity (IC50, nM) CDK 6. As for the experimental part:
(§5) The ADP-Glo kinase assay was used for testing the activity of CDKs. The compounds were diluted in 384-well plates using Echo. The starting concentration was 10 μM and was 3-fold diluted to obtain 10 concentration points, each tested in duplicate, and the final concentration of DMSO in the assay system was 1%. CDK solutions (the final concentrations were 16.5 nM CDK1/CyclinB, 1 nM CDK2/CyclinE1, 16.3 nM CDK4/CyclinD1, 11.5 nM CDK5/p25, 15.7 nM CDK6/CyclinD3, 80 nM CDK7/Cyclin H/MAT1, 15.3 nM CDK9/Cyclin T1, and 150 nM CDK12/CyclinK) prepared in assay buffer were added at 2.5 μL, and the enzymes and compounds were pre-incubated at room temperature for 10 min. ATP (the concentration was Km) & substrate solutions (20 μM ATP & 0.1 mg/mL Histone H1 Protein for CDK1/CyclinB, 15 μM ATP & 0.1 mg/mL Histone H1 Protein for CDK2/CyclinE1, 200 μM ATP & 0.2 mg/mL DYRKtide peptide for CDK4/CyclinD1, 10 μM ATP & 0.1 mg/mL Histone H1 Protein for CDK5/p25, 200 μM ATP & 0.1 mg/mL Histone H1 Protein for CDK6/CyclinD3, 70 μM ATP & 0.2 mg/mL MBP for CDK7/Cyclin H/MAT1, 60 μM ATP & 0.2 mg/mL PDKtide for CDK9/Cyclin T1, and 20 μM ATP & 80 μM pS7-CTD peptide for CDK12/CyclinK) prepared in assay buffer were added at 2.5 μL. […] Readings were taken using an Envision multimode microplate reader. Data were processed using GraphPad Prism 8, and IC50 was calculated. […]
(In general: ADP-Glo turns the ADP formed in a reaction into a luminescent signal.)

For assay [4], the system named is HCT-116 colorectal cancer cells. Kind of assay: Inhibitory activity against tumor cells, CellTiter-Glo: HCT-116. The format is cell-based. Conditions: Homo sapiens, 168 h, HCT-116, 7 days treatment. The procedure:
as §1, §2
Palbociclib-resistant cells were constructed on MCF7 parent cells, designated MCF7 Palbo-R, and the culture conditions were consistent with those of the parent cells. All tumor cells were cultured in a cell incubator at 37° C. with 5% CO2. The cells were seeded at corresponding cell densities (600 cells/well for MDA-MB-231; 500 cells/well for MDA-MB-468, PANC-1, and HCT-116; 200 cells/well for MCF7 and HCC1806; 800 cells/well for MCF7 Palbo-R; 3000 cells/well for OCI-AML-3 and MV-4-11) in 384-well plates and cultured overnight in the incubator. On the second day, the cells were treated with compounds. The maximum compound concentration was 10 μM and was 3-fold diluted to obtain 9 concentrations, each tested in duplicate, and the final concentration of DMSO was 0.1%. The cells continued to be cultured in the incubator, with MDA-MB-231, PANC-1, MDA-MB-468, OCI-AML-3, and MV-4-11 being treated with drugs for 5 days and HCC1806, MCF7, MCF7 Palbo-R, and HCT116 being treated with drugs for 7 days. Cell viability was tested using the Celltiter Glo assay kit (Promega), and the testing method was consistent with the operational method provided by the kit. Readings were taken using an Envision multimode microplate reader. Data were processed using GraphPad Prism 8, and IC50 was calculated.
Y=Bottom+(Top−Bottom)/(1+10^((Log IC50−X)×HillSlope)). Calculation formula: • X: the logarithm of the compound concentration; Y: % inhibition.

For another assay, the target named is CDK4/CyclinD1 (Homo sapiens, UniProt P11802). Kind of assay: ADP-Glo kinase assay, CDK4. The format is biochemical. Conditions: 16.3 nM CDK4/CyclinD1, 200 μM ATP (Km), DYRKtide peptide, 120 min; read-out: inhibitory activity (IC50, nM) CDK4. As for the experimental part:
as §5

Another assay has as its system MCF7 breast cancer cells. Kind of assay: Inhibitory activity against tumor cells, CellTiter-Glo: MCF7. The format is cell-based. Conditions: Homo sapiens, 168 h, MCF7, 7 days treatment. As for the experimental part:
as §1, §2, §3

Another assay deals with CDK7/Cyclin H/MAT1 (Homo sapiens, UniProt P50613). Kind of assay: ADP-Glo kinase assay, CDK7. The format is biochemical. Conditions: for IC50: 80 nM CDK7/Cyclin H/MAT1, 70 μM ATP (Km), MBP, 60 min, read-out: inhibitory activity (IC50, nM) CDK7; for selectivity for CDK2/CDK7 compared with Janssen-01: from IC50 of Table 6, statement in words. The procedure:
The ADP-Glo kinase assay was used for testing the activity of CDKs. The compounds were diluted in 384-well plates using Echo. The starting concentration was 10 μM and was 3-fold diluted to obtain 10 concentration points, each tested in duplicate, and the final concentration of DMSO in the assay system was 1%. CDK solutions (the final concentrations were 16.5 nM CDK1/CyclinB, 1 nM CDK2/CyclinE1, 16.3 nM CDK4/CyclinD1, 11.5 nM CDK5/p25, 15.7 nM CDK6/CyclinD3, 80 nM CDK7/Cyclin H/MAT1, 15.3 nM CDK9/Cyclin T1, and 150 nM CDK12/CyclinK) prepared in assay buffer were added at 2.5 μL, and the enzymes and compounds were pre-incubated at room temperature for 10 min. ATP (the concentration was Km) & substrate solutions (20 μM ATP & 0.1 mg/mL Histone H1 Protein for CDK1/CyclinB, 15 μM ATP & 0.1 mg/mL Histone H1 Protein for CDK2/CyclinE1, 200 μM ATP & 0.2 mg/mL DYRKtide peptide for CDK4/CyclinD1, 10 μM ATP & 0.1 mg/mL Histone H1 Protein for CDK5/p25, 200 μM ATP & 0.1 mg/mL Histone H1 Protein for CDK6/CyclinD3, 70 μM ATP & 0.2 mg/mL MBP for CDK7/Cyclin H/MAT1, 60 μM ATP & 0.2 mg/mL PDKtide for CDK9/Cyclin T1, and 20 μM ATP & 80 μM pS7-CTD peptide for CDK12/CyclinK) prepared in assay buffer were added at 2.5 μL. After thorough mixing, the plates were incubated at room temperature, with CDK1/4/9/12/13 incubated for 120 min and CDK2/5/6/7 incubated for 60 min. ADP-Glo reagents were added at 4 μL, and the plates were incubated at room temperature for 40 min. Kinase detection reagents were added at 8 μL, and the plates were incubated at room temperature for 40 min. Readings were taken using an Envision multimode microplate reader. Data were processed using GraphPad Prism 8, and IC50 was calculated.
as §4

The structures appear in SMILES notation. A value given as a limit tells only on which side of the number the result lay.

Sequence of CDK7/Cyclin H/MAT1 (P50613 whole entry, species assumed): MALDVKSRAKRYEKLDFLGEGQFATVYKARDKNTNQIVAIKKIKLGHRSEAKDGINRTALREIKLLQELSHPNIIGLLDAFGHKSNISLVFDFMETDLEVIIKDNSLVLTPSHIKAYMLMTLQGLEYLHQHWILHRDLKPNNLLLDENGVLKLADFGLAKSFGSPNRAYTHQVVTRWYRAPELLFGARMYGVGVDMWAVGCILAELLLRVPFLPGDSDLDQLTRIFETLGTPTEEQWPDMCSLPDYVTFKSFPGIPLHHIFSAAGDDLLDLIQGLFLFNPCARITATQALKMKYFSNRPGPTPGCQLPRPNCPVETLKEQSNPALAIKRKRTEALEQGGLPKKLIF
Sequence of CDK7/Cyclin H/MAT1 (P51946 whole entry partner, species assumed): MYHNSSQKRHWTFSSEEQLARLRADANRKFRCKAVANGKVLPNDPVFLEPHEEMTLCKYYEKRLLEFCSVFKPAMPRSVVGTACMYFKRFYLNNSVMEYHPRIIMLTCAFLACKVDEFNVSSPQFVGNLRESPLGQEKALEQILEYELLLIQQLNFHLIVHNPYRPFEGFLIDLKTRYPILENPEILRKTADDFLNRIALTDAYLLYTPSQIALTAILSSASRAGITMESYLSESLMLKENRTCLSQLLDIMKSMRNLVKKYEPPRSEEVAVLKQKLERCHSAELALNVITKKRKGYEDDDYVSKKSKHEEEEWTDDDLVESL
Sequence of CDK7/Cyclin H/MAT1 (P51948 whole entry partner, species assumed): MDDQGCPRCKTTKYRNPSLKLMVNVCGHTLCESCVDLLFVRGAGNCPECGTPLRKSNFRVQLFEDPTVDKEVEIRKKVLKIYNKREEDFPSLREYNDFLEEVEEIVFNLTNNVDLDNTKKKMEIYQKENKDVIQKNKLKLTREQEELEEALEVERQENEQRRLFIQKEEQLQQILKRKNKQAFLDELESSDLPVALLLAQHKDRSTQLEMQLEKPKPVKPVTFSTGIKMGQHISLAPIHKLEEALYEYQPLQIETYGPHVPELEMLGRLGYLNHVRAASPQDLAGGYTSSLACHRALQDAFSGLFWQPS
Sequence of CDK4/CyclinD1 (P11802 whole entry, species assumed): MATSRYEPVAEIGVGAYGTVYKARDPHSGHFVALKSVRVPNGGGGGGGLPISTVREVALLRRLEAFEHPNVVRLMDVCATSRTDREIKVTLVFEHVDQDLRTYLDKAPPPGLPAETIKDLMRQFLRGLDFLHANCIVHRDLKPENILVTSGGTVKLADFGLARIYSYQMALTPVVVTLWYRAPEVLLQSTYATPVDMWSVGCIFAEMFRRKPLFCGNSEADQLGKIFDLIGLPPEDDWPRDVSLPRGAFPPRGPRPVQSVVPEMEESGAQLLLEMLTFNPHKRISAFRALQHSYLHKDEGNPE
Sequence of CDK4/CyclinD1 (P24385 whole entry partner, species assumed): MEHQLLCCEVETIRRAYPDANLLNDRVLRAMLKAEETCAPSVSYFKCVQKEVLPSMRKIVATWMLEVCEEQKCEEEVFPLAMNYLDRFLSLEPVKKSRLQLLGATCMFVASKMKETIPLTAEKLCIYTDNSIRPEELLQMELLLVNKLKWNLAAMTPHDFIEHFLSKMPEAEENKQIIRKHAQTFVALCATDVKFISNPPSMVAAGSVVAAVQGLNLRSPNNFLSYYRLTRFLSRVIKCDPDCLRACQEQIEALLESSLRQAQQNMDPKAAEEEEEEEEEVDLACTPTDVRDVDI
Sequence of CDK6/CyclinD3 (Q00534 whole entry, species assumed): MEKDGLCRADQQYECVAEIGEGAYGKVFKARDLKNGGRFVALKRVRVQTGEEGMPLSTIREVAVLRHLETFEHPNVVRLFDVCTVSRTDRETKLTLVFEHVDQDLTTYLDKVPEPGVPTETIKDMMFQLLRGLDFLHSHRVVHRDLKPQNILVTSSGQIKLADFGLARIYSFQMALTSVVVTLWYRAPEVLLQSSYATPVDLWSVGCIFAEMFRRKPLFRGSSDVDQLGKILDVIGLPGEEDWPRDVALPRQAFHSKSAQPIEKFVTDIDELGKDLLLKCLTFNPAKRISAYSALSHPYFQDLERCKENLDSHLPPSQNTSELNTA
Sequence of CDK6/CyclinD3 (P30281 whole entry partner, species assumed): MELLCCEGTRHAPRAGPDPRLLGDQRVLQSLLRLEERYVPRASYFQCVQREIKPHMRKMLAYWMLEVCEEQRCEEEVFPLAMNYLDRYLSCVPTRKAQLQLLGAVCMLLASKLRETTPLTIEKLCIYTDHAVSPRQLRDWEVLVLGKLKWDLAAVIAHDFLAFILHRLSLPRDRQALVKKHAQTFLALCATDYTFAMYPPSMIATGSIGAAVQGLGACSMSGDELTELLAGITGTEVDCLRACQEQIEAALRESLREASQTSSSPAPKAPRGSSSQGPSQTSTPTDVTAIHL

The IC50 is the concentration needed to halve the response being measured. `C[C@@H]1Cc2cnc(NCc3ccn(C)n3)nc2CN1C(=O)N[C@H](CN(C)C)c1ccccc1` [Example 2, (R)—N—((S)-2-(Dimethylamino)-1-phenylethyl)-6-methyl-2-(((1-methyl-TH-pyrazol-3-yl)methyl)amino)-5,8-dihydropyrido[3,4-d]pyrimidine-7(6H)-carboxamide]: the half-inhibitory concentration (IC50) was 28.6 nM in assay [1]; 45.9 nM in assay [2]; 24.2 nM in assay [3]; greater than 10000 nM at CDK6/CyclinD3; 75.6 nM in assay [4]; greater than 10000 nM on CDK4/CyclinD1. Also, the half-maximal inhibitory concentration (IC50) with MCF7 breast cancer cells was 14.6 nM; at CDK7/Cyclin H/MAT1, 21.9 nM. Further, the “selectivity for CDK2/CDK7 compared with Janssen-01” value at CDK7/Cyclin H/MAT1 is given as “significantly better selectivity for CDK2/CDK7 than Janssen-01”.

`C[C@H](Nc1ncc2c(n1)CN(C(=O)N[C@H](CN(C)C)c1ccccc1)[C@H](C)C2)c1ccccn1` [Example 6, (R)—N—((S)-2-(Dimethylamino)-1-phenylethyl)-6-methyl-2-(((S)-1-(pyridin-2-yl)ethyl)amino)-5,8-dihydropyrido[3,4-d]pyrimidine-7(6H)-carboxamide]: the half-inhibitory concentration (IC50) in assay [1] was 23.7 nM; in assay [2], 17.7 nM; in assay [3], 27.7 nM; at CDK6/CyclinD3, greater than 10000 nM; in assay [4], 46.9 nM; at CDK4/CyclinD1 it was greater than 10000 nM. For the same compound, the values for the IC50 in the assay on MCF7 breast cancer cells and on CDK7/Cyclin H/MAT1 were 11.8 nM and 28.4 nM, respectively. Also, the “selectivity for CDK2/CDK7 compared with Janssen-01” value at CDK7/Cyclin H/MAT1 is given as “significantly better selectivity for CDK2/CDK7 than Janssen-01”.
